Patent publication US10506808B2, “Composition and rodenticide bait comprising difethialone and method for controlling target rodent pests” (priority 2015, dated 2019)
Where two headings read alike, the source gives them in different places.

Columns and labels:
[1] = assay type: in vivo, Rattus norvegicus; details: about 3.4 mg/kg difethialone per os (40% homo-, 60% hetero-stereoisomer, each racemic), mean of six rats
Protocol: About 0.525 g (±0.025 g) of rat liver is weighed out accurately and placed in a 50 mL polypropylene tube. 10 mL of acetone are added and the suspension is homogenized using an Ultra-Turrax® homogenizer/disperser for a time of about 30 seconds. The homogenizer/disperser shaft is rinsed with hot water and then twice with 20 mL of acetone in a polypropylene tube. The homogenate is centrifuged for 5 minutes at a centrifugation speed of 3000 rpm (revolutions per minute). The supernatant is collected and transferred into a test tube. The sample is subjected to evaporation under a stream of nitrogen (N2) at a temperature of 40° C. so as to form a dry extract.
1 mL of acetonitrile is added to the tube containing the dry extract so as to dissolve it. The acetonitrile solution is washed twice successively with 1 mL of hexane. The lipid-free extract is dried under a stream of nitrogen (N2) at a temperature of 40° C. and is then taken up in 0.5 mL of methanol and dissolved by vortex stirring. 0.5 mL of ultra-pure (Milli-Q) water is then added. The sample is vortex-homogenized.
1 mL of dichloromethane, then 1 mL of methanol, then 1 mL of ultra-pure (Milli-Q) water are passed through an Oasis HLB 1 cc cartridge (WAT094225, Waters). The lipid-free liver extract (1 mL of MeOH/Milli-Q H2O) containing difethialone is then loaded onto the top of the cartridge so that the liver extract penetrates through the cartridge by gravity on contact with the solid phase. 1 mL of washing solution formed from methanol and ultra-pure water in a 90/10 volume proportion is then loaded onto the top of the cartridge. The cartridge is dried by suction under vacuum connected to the bottom of the cartridge. 1 mL of eluting solution formed from dichloromethane and methanol in a 90/10 volume proportion is then loaded onto the top of the cartridge and an eluate comprising difethialone is collected at the bottom of the cartridge. The solvent of the eluate is evaporated off under a stream of nitrogen (N2) at a temperature of 40° C. The sample is taken up in 0.5 mL of acetonitrile and the acetonitrile solution containing difethialone is filtered through a 0.2 μm filter.
The composition is analysed by high-pressure liquid chromatography on a chiral column as described in point A2) above.
A solution of a mixture of homo-stereoisomer (DFN-Homo-SI) and of hetero-stereoisomer (DFN-Hetero-SI) of difethialone in a mixture of vegetable oil and 5% DMSO is administered by tube-feeding (“per os”) to 8-week-old coumaphen-sensitive rats (male and female Rattus norvegicus) weighing about 200 g. The molar proportion of homo-stereoisomer is 40% and the molar proportion of hetero-stereoisomer is 60%. Each configurational stereoisomer of difethialone is formed from a racemic mixture of the two enantiomers of said corresponding configurational stereoisomer.
On D0, a tube-feeding solution is administered to each rat so that the amount of difethialone ingested by each rat is about 3.4 mg per kilogram of rat. To avoid haemorrhage, the rats are also treated daily by subcutaneous administration of a dose of vitamin K1 (as haemorrhage antidote) at a rate of […] per 200 g of live rat weight.
At 4 hours (H+4), 9 hours (H+9), 24 hours (H+24), 120 hours (H+120), 168 hours (H+168) and 216 hours (H+216) after tube-feeding, three male rats and three female rats anaesthetized beforehand with isoflurane are euthanized, the liver of the euthanized rats is removed, the difethialone is then extracted from the liver, the amount of each of the configurational stereoisomers of difethialone is assayed, the area under the peaks in the chromatogram obtained is measured and each configurational stereoisomer is quantified by comparison with a calibration curve. […]

[2] = assay type: in vivo, Rattus norvegicus; details: 48 hours after tube-feeding; about 3.4 mg/kg difethialone per os (40% homo-, 60% hetero-stereoisomer, each racemic); mean of six rats
[3] = 4 hours after tube-feeding, daily vitamin K1

Row | SMILES | Hepatic content [1, 3] [ng/g] | Hepatic content ([1]; 9 hours after tube-feeding) [ng/g] | Hepatic content ([1]; 24 hours after tube-feeding) [ng/g] | Hepatic content ([1]; 120 hours after tube-feeding) [ng/g] | Hepatic content ([1]; 168 hours after tube-feeding) [ng/g] | Hepatic content ([1]; 216 hours after tube-feeding) [ng/g] | Hepatic content [2] [ng/g]
1 | Oc1c(C2CC(c3ccc(-c4ccc(Br)cc4)cc3)Cc3ccccc32)c(=S)oc2ccccc12 (single isomer, unassigned) [DFN-Hetero-dextro, 3-(4′-bromobiphenyl-4-yl)-1-(4-hydroxythiocoumarin-3-yl)-1,2,3,4-tetrahydronaphthalene] | 10589.5 | 12155.5 | 8102 | 5431.5 | 3011 | 4030.5 | 7974.5
2 | Oc1c(C2CC(c3ccc(-c4ccc(Br)cc4)cc3)Cc3ccccc32)c(=S)oc2ccccc12 (single isomer, unassigned) [DFN-Homo-dextro, 3-(4′-bromobiphenyl-4-yl)-1-(4-hydroxythiocoumarin-3-yl)-1,2,3,4-tetrahydronaphthalene] | 4566 | 4692.5 | 1243.5 | 192.5 | 129 | 77.5 | 720.5
